Data as given in the OPERA property sets (Mansouri et al. 2018).

SMILES | logP
N#C/N=[N+](\[O-])c1cccc(Br)c1 | 2.56
Cc1ccc([N+]([O-])=NC#N)cc1 | 2.39
COc1cccc(/[N+]([O-])=N/C#N)c1 | 2.24
CN(C)c1ccc(/[N+]([O-])=N/C#N)cc1 | 2.3
N#CN=[N+]([O-])c1ccnc2ccccc12 | 2.07
N#CN=[N+]([O-])c1ncccn1 | -0.13
N#C/N=[N+](\[O-])c1ccccn1 | 0.53
N#CN=[N+]([O-])c1ccc(Cl)cc1 | 2.33
N#CN=[N+]([O-])c1ccc(C(F)(F)F)cc1 | 2.47
N#CN=[N+]([O-])c1cnccn1 | 0.1
COc1ccc(/[N+]([O-])=N/C#N)cc1 | 2.15
N#C/N=[N+](\[O-])c1cccc(F)c1 | 1.85
N#C/N=[N+](\[O-])c1ccc([N+](=O)[O-])cc1 | 1.51
CCNc1nonc1N | 0.51
N#CN=[N+]([O-])c1cccc(C#N)c1 | 1.15
N#CN=[N+]([O-])c1ccc(C#N)cc1 | 1.18
N#CN=[N+]([O-])c1cccc(C(F)(F)F)c1 | 2.52
N#CN=[N+]([O-])c1cccc2ccccc12 | 3.17
N#C/N=[N+](\[O-])c1cccc([N+](=O)[O-])c1 | 1.45
Cc1cccc([N+]([O-])=NC#N)c1 | 2.49
N#C/N=[N+](\[O-])c1cccc(Cl)c1 | 2.4
N#CN=[N+]([O-])c1ccc(F)cc1 | 1.8
N#C/N=[N+](\[O-])c1ccc(Br)cc1 | 2.5
N#CN=[N+]([O-])c1ccccc1 | 1.87
